Laboratory results taken from BindingDB's records for doi:10.1021/jm950372w (Rotta Research Laboratorium, 1996).
pIC50: −log10 of the molar value.

Experiments:
[1] = target: Gastrin/cholecystokinin type B receptor (Oryctolagus cuniculus); assay: In vitro inhibition of gastrin-induced [Ca2+] cytosolic elevation in isolated rabbit parietal cells
[2] = target: Gastrin/cholecystokinin type B receptor (Cavia porcellus); assay: Inhibition of binding of [3H]N-Me-N-Leu-CCK-8 to cholecystokinin type B receptor in guinea pig brain cortex

Structure (SMILES): O=C(CCC(NC(=O)c1cc(Cl)cc(Cl)c1)C(=O)N1CCC2(CCCC2)CC1)NC(Cc1c[nH]c2ccccc12)C(=O)O (stereo not given) [2-[5-(8-Aza-spiro[4.5]dec-8-yl)-4-(3,5-dichloro-benzoylamino)-5-oxo-pentanoylamino]-3-(1H-indol-3-yl)-propionic acid]
- pIC50 [1]: 7.92
- pIC50 [2]: 7.31

Structure (SMILES): O=C(CCC(NC(=O)c1cc(Cl)cc(Cl)c1)C(=O)N1CCC2(CCCC2)CC1)NC(Cc1ccc(O)cc1)C(=O)O (stereo not given) [2-[5-(8-Aza-spiro[4.5]dec-8-yl)-4-(3,5-dichloro-benzoylamino)-5-oxo-pentanoylamino]-3-(4-hydroxy-phenyl)-propionic acid]
- pIC50 [1]: 6.76
- pIC50 [2]: 6.49

Structure (SMILES): O=C(CC(NC(=O)CCC(NC(=O)c1cc(Cl)cc(Cl)c1)C(=O)N1CCC2(CCCC2)CC1)C(=O)O)NCc1ccccc1 (stereo not given) [2-[5-(8-Aza-spiro[4.5]dec-8-yl)-4-(3,5-dichloro-benzoylamino)-5-oxo-pentanoylamino]-N-benzyl-succinamic acid]
- pIC50 [1]: 7.12
- pIC50 [2]: 6.41

Structure (SMILES): O=C(CCC(NC(=O)c1cc(Cl)cc(Cl)c1)C(=O)N1CCC2(CCCC2)CC1)Nc1ccccc1C(=O)O (stereo not given) [2-[5-(8-Aza-spiro[4.5]dec-8-yl)-4-(3,5-dichloro-benzoylamino)-5-oxo-pentanoylamino]-benzoic acid]
- pIC50 [1]: 7.26
- pIC50 [2]: 6.35

Structure (SMILES): CCCCC(NC(=O)CCC(NC(=O)c1cc(Cl)cc(Cl)c1)C(=O)N1CCC2(CCCC2)CC1)C(=O)O (stereo not given) [2-[5-(8-Aza-spiro[4.5]dec-8-yl)-4-(3,5-dichloro-benzoylamino)-5-oxo-pentanoylamino]-hexanoic acid]
- pIC50 [1]: 7.02
- pIC50 [2]: 5.98

Structure (SMILES): CC(NC(=O)CCC(NC(=O)c1cc(Cl)cc(Cl)c1)C(=O)N1CCC2(CCCC2)CC1)C(=O)O (stereo not given) [2-[5-(8-Aza-spiro[4.5]dec-8-yl)-4-(3,5-dichloro-benzoylamino)-5-oxo-pentanoylamino]-propionic acid]
- pIC50 [1]: 6.00
- pIC50 [2]: 5.90

Structure (SMILES): O=C(O)CCC(Cc1ccccc1)NC(=O)CCC(NC(=O)c1cc(Cl)cc(Cl)c1)C(=O)N1CCC2(CCCC2)CC1 (stereo not given) [4-[5-(8-Aza-spiro[4.5]dec-8-yl)-4-(3,5-dichloro-benzoylamino)-5-oxo-pentanoylamino]-5-phenyl-pentanoic acid]
- pIC50 [1]: 7.07
- pIC50 [2]: 6.80

Structure (SMILES): O=C(CCC(NC(=O)c1cc(Cl)cc(Cl)c1)C(=O)N1CCC2(CCCC2)CC1)Nc1ccc(C(=O)O)cc1 (stereo not given) [4-[5-(8-Aza-spiro[4.5]dec-8-yl)-4-(3,5-dichloro-benzoylamino)-5-oxo-pentanoylamino]-benzoic acid]
- pIC50 [1]: 6.25
- pIC50 [2]: 5.75

Structure (SMILES): CN(C(=O)CCC(NC(=O)c1cc(Cl)cc(Cl)c1)C(=O)N1CCC2(CCCC2)CC1)c1ccc(C(=O)O)cc1 (stereo not given) [4-{[5-(8-Aza-spiro[4.5]dec-8-yl)-4-(3,5-dichloro-benzoylamino)-5-oxo-pentanoyl]-methyl-amino}-benzoic acid]
- pIC50 [1]: 5.97
- pIC50 [2]: 5.85

Structure (SMILES): O=C(CCC(NC(=O)c1cc(Cl)cc(Cl)c1)C(=O)N1CCC2(CCCC2)CC1)N[C@H](Cc1c[nH]c2ccccc12)C(=O)O (stereo partly drawn) [(R)-2-[5-(8-Aza-spiro[4.5]dec-8-yl)-4-(3,5-dichloro-benzoylamino)-5-oxo-pentanoylamino]-3-(1H-indol-3-yl)-propionic acid]
- pIC50 [1]: 8.05
- pIC50 [2]: 7.40

Structure (SMILES): O=C(CCC(NC(=O)c1cc(Cl)cc(Cl)c1)C(=O)N1CCC2(CCCC2)CC1)N[C@H](CC1CCCCC1)C(=O)O (stereo partly drawn) [(R)-2-[5-(8-Aza-spiro[4.5]dec-8-yl)-4-(3,5-dichloro-benzoylamino)-5-oxo-pentanoylamino]-3-cyclohexyl-propionic acid]
- pIC50 [1]: 6.85
- pIC50 [2]: 6.21

Structure (SMILES): O=C(CCC(NC(=O)c1cc(Cl)cc(Cl)c1)C(=O)N1CCC2(CCCC2)CC1)N[C@H](Cc1cccc2ccccc12)C(=O)O (stereo partly drawn) [(R)-2-[5-(8-Aza-spiro[4.5]dec-8-yl)-4-(3,5-dichloro-benzoylamino)-5-oxo-pentanoylamino]-3-naphthalen-1-yl-propionic acid]
- pIC50 [1]: 8.05
- pIC50 [2]: 7.17

Structure (SMILES): O=C(CCC(NC(=O)c1cc(Cl)cc(Cl)c1)C(=O)N1CCC2(CCCC2)CC1)N[C@H](Cc1ccc2ccccc2c1)C(=O)O (stereo partly drawn) [(R)-2-[5-(8-Aza-spiro[4.5]dec-8-yl)-4-(3,5-dichloro-benzoylamino)-5-oxo-pentanoylamino]-3-naphthalen-2-yl-propionic acid]
- pIC50 [1]: 7.62
- pIC50 [2]: 6.89

Structure (SMILES): O=C(CCC(NC(=O)c1cc(Cl)cc(Cl)c1)C(=O)N1CCC2(CCCC2)CC1)N[C@H](Cc1ccccn1)C(=O)O (stereo partly drawn) [(R)-2-[5-(8-Aza-spiro[4.5]dec-8-yl)-4-(3,5-dichloro-benzoylamino)-5-oxo-pentanoylamino]-3-pyridin-2-yl-propionic acid]
- pIC50 [1]: 6.51
- pIC50 [2]: 6.81

Structure (SMILES): O=C(O)C[C@@H](NC(=O)CCC(NC(=O)c1cc(Cl)cc(Cl)c1)C(=O)N1CCC2(CCCC2)CC1)C(=O)N1CCC2(CCCC2)CC1 (stereo partly drawn) [(R)-4-(8-Aza-spiro[4.5]dec-8-yl)-3-[5-(8-aza-spiro[4.5]dec-8-yl)-4-(3,5-dichloro-benzoylamino)-5-oxo-pentanoylamino]-4-oxo-butyric acid]
- pIC50 [1]: 6.70
- pIC50 [2]: 5.87

Structure (SMILES): O=C(O)CC[C@@H](NC(=O)CCC(NC(=O)c1cc(Cl)cc(Cl)c1)C(=O)N1CCC2(CCCC2)CC1)C(=O)NCCCc1ccccc1 (stereo partly drawn) [(R)-4-[5-(8-Aza-spiro[4.5]dec-8-yl)-4-(3,5-dichloro-benzoylamino)-5-oxo-pentanoylamino]-4-(3-phenyl-propylcarbamoyl)-butyric acid]
- pIC50 [1]: 6.93
- pIC50 [2]: 5.73

Structure (SMILES): O=C(O)CC[C@@H](NC(=O)CCC(NC(=O)c1cc(Cl)cc(Cl)c1)C(=O)N1CCC2(CCCC2)CC1)C(=O)Nc1cccc2ccccc12 (stereo partly drawn) [(R)-4-[5-(8-Aza-spiro[4.5]dec-8-yl)-4-(3,5-dichloro-benzoylamino)-5-oxo-pentanoylamino]-4-(naphthalen-1-ylcarbamoyl)-butyric acid]
- pIC50 [1]: 7.77
- pIC50 [2]: 7.07

Structure (SMILES): O=C(O)CC[C@@H](NC(=O)CCC(NC(=O)c1cc(Cl)cc(Cl)c1)C(=O)N1CCC2(CCCC2)CC1)C(=O)NCc1ccccc1 (stereo partly drawn) [(R)-4-[5-(8-Aza-spiro[4.5]dec-8-yl)-4-(3,5-dichloro-benzoylamino)-5-oxo-pentanoylamino]-4-benzylcarbamoyl-butyric acid]
- pIC50 [1]: 7.42
- pIC50 [2]: 6.37

Structure (SMILES): O=C(O)CC[C@@H](NC(=O)CCC(NC(=O)c1cc(Cl)cc(Cl)c1)C(=O)N1CCC2(CCCC2)CC1)C(=O)NCCc1ccccc1 (stereo partly drawn) [(R)-4-[5-(8-Aza-spiro[4.5]dec-8-yl)-4-(3,5-dichloro-benzoylamino)-5-oxo-pentanoylamino]-4-phenethylcarbamoyl-butyric acid]
- pIC50 [1]: 6.40
- pIC50 [2]: 5.96

Structure (SMILES): O=C(O)CC[C@@H](NC(=O)c1cc(Cl)cc(Cl)c1)C(=O)N1CCC2(CCCC2)CC1 [(R)-5-(8-Aza-spiro[4.5]dec-8-yl)-4-(3,5-dichloro-benzoylamino)-5-oxo-pentanoic acid]
- pIC50 [1]: 5.91

Structure (SMILES): O=C(O)CC[C@@H](NC(=O)CCC(NC(=O)c1cc(Cl)cc(Cl)c1)C(=O)N1CCC2(CCCC2)CC1)C(=O)N1CCC2(CCCC2)CC1 (stereo partly drawn) [(R)-5-(8-Aza-spiro[4.5]dec-8-yl)-4-[5-(8-aza-spiro[4.5]dec-8-yl)-4-(3,5-dichloro-benzoylamino)-5-oxo-pentanoylamino]-5-oxo-pentanoic acid]
- pIC50 [1]: 6.69
- pIC50 [2]: 5.77

Structure (SMILES): O=C(CCC(NC(=O)c1cc(Cl)cc(Cl)c1)C(=O)N1CCC2(CCCC2)CC1)N[C@@H](Cc1c[nH]c2ccccc12)C(=O)O (stereo partly drawn) [(S)-2-[5-(8-Aza-spiro[4.5]dec-8-yl)-4-(3,5-dichloro-benzoylamino)-5-oxo-pentanoylamino]-3-(1H-indol-3-yl)-propionic acid]
- pIC50 [1]: 7.46
- pIC50 [2]: 6.67

Structure (SMILES): CN(Cc1ccccc1)C(=O)CC[C@H](NC(=O)CCC(NC(=O)c1cc(Cl)cc(Cl)c1)C(=O)N1CCC2(CCCC2)CC1)C(=O)O (stereo partly drawn) [(S)-2-[5-(8-Aza-spiro[4.5]dec-8-yl)-4-(3,5-dichloro-benzoylamino)-5-oxo-pentanoylamino]-4-(benzyl-methyl-carbamoyl)-butyric acid]
- pIC50 [1]: 7.26
- pIC50 [2]: 7.11

Structure (SMILES): O=C(CC[C@H](NC(=O)CCC(NC(=O)c1cc(Cl)cc(Cl)c1)C(=O)N1CCC2(CCCC2)CC1)C(=O)O)Nc1cccc2ccccc12 (stereo partly drawn) [(S)-2-[5-(8-Aza-spiro[4.5]dec-8-yl)-4-(3,5-dichloro-benzoylamino)-5-oxo-pentanoylamino]-4-(naphthalen-1-ylcarbamoyl)-butyric acid]
- pIC50 [1]: 7.92
- pIC50 [2]: 7.36

Structure (SMILES): CN(Cc1ccccc1)C(=O)C[C@H](NC(=O)CCC(NC(=O)c1cc(Cl)cc(Cl)c1)C(=O)N1CCC2(CCCC2)CC1)C(=O)O (stereo partly drawn) [(S)-2-[5-(8-Aza-spiro[4.5]dec-8-yl)-4-(3,5-dichloro-benzoylamino)-5-oxo-pentanoylamino]-N-benzyl-N-methyl-succinamic acid]
- pIC50 [1]: 7.36
- pIC50 [2]: 6.80

Structure (SMILES): O=C(O)C[C@H](NC(=O)CCC(NC(=O)c1cc(Cl)cc(Cl)c1)C(=O)N1CCC2(CCCC2)CC1)C(=O)Nc1cccc2ccccc12 (stereo partly drawn) [(S)-3-[5-(8-Aza-spiro[4.5]dec-8-yl)-4-(3,5-dichloro-benzoylamino)-5-oxo-pentanoylamino]-N-naphthalen-1-yl-succinamic acid]
- pIC50 [1]: 7.72
- pIC50 [2]: 6.67

Structure (SMILES): O=C(O)CC[C@H](NC(=O)CCC(NC(=O)c1cc(Cl)cc(Cl)c1)C(=O)N1CCC2(CCCC2)CC1)C(=O)NC1CCCc2ccccc21 (stereo partly drawn) [(S)-4-[5-(8-Aza-spiro[4.5]dec-8-yl)-4-(3,5-dichloro-benzoylamino)-5-oxo-pentanoylamino]-4-(1,2,3,4-tetrahydro-naphthalen-1-ylcarbamoyl)-butyric acid]
- pIC50 [1]: 8.05
- pIC50 [2]: 7.34

Structure (SMILES): O=C(O)CC[C@H](NC(=O)CCC(NC(=O)c1cc(Cl)cc(Cl)c1)C(=O)N1CCC2(CCCC2)CC1)C(=O)Nc1cccc2c1CCCC2 (stereo partly drawn) [(S)-4-[5-(8-Aza-spiro[4.5]dec-8-yl)-4-(3,5-dichloro-benzoylamino)-5-oxo-pentanoylamino]-4-(5,6,7,8-tetrahydro-naphthalen-1-ylcarbamoyl)-butyric acid]
- pIC50 [1]: 7.80
- pIC50 [2]: 7.24
